{"source": "ChEMBL document CHEMBL3124843", "about": "“Synthesis, cytostatic, antimicrobial, and anti-HCV activity of 6-substituted 7-(het)aryl-7-deazapurine ribonucleosides” (J Med Chem, 2014)", "data": [{"test_system": "Mycobacterium tuberculosis", "assay": "Antimycobacterial activity against Mycobacterium bovis BCG after 5 days by MTT assay", "format": "functional, organism-based", "conditions": "variant bovis BCG, 120 h", "units": {"IC50": "µM"}, "values": [{"smiles": "Cc1ncnc2c1ccn2[C@@H]1O[C@H](CO)[C@@H](O)[C@H]1O", "IC50": 0.3}, {"smiles": "Nc1ncnc2c1c(-c1ccco1)cn2[C@@H]1O[C@H](CO)[C@@H](O)[C@H]1O", "IC50": 17.4}, {"smiles": "Nc1ncnc2c1c(-c1cccs1)cn2[C@@H]1O[C@H](CO)[C@@H](O)[C@H]1O", "IC50": 4.73}, {"smiles": "O=c1[nH]cnc2c1c(-c1cccs1)cn2[C@@H]1O[C@H](CO)[C@@H](O)[C@H]1O", "IC50": "> 100"}, {"smiles": "Cc1nc(N)c2c(I)cn([C@@H]3O[C@H](CO)[C@@H](O)[C@H]3O)c2n1", "IC50": "> 100"}, {"smiles": "COc1nc(N)nc2c1c(-c1ccco1)cn2[C@@H]1O[C@H](CO)[C@@H](O)[C@H]1O", "IC50": "> 100"}, {"smiles": "COc1nc(N)nc2c1c(-c1ccoc1)cn2[C@@H]1O[C@H](CO)[C@@H](O)[C@H]1O", "IC50": "> 100"}, {"smiles": "COc1nc(N)nc2c1c(-c1cccs1)cn2[C@@H]1O[C@H](CO)[C@@H](O)[C@H]1O", "IC50": "> 100"}, {"smiles": "COc1nc(N)nc2c1c(-c1ccsc1)cn2[C@@H]1O[C@H](CO)[C@@H](O)[C@H]1O", "IC50": "> 100"}, {"smiles": "COc1nc(N)nc2c1c(-c1ccccc1)cn2[C@@H]1O[C@H](CO)[C@@H](O)[C@H]1O", "IC50": "> 100"}, {"smiles": "COc1nc(N)nc2c1c(-c1cc3ccccc3o1)cn2[C@@H]1O[C@H](CO)[C@@H](O)[C@H]1O", "IC50": "> 100"}, {"smiles": "C#Cc1cn([C@@H]2O[C@H](CO)[C@@H](O)[C@H]2O)c2nc(N)nc(OC)c12", "IC50": "> 100"}, {"smiles": "Nc1nc2c(c(-c3ccco3)cn2[C@@H]2O[C@H](CO)[C@@H](O)[C@H]2O)c(=O)[nH]1", "IC50": "> 100"}, {"smiles": "Nc1nc2c(c(-c3ccoc3)cn2[C@@H]2O[C@H](CO)[C@@H](O)[C@H]2O)c(=O)[nH]1", "IC50": "> 100"}, {"smiles": "Nc1nc2c(c(-c3cccs3)cn2[C@@H]2O[C@H](CO)[C@@H](O)[C@H]2O)c(=O)[nH]1", "IC50": "> 100"}, {"smiles": "Nc1nc2c(c(-c3ccsc3)cn2[C@@H]2O[C@H](CO)[C@@H](O)[C@H]2O)c(=O)[nH]1", "IC50": "> 100"}, {"smiles": "Nc1nc2c(c(-c3ccccc3)cn2[C@@H]2O[C@H](CO)[C@@H](O)[C@H]2O)c(=O)[nH]1", "IC50": "> 100"}, {"smiles": "Nc1nc2c(c(-c3cc4ccccc4o3)cn2[C@@H]2O[C@H](CO)[C@@H](O)[C@H]2O)c(=O)[nH]1", "IC50": "> 100"}, {"smiles": "O=c1[nH]cnc2c1c(-c1ccco1)cn2[C@@H]1O[C@H](CO)[C@@H](O)[C@H]1O", "IC50": "> 100"}, {"smiles": "O=c1[nH]cnc2c1c(-c1ccoc1)cn2[C@@H]1O[C@H](CO)[C@@H](O)[C@H]1O", "IC50": "> 100"}, {"smiles": "O=c1[nH]cnc2c1c(-c1ccsc1)cn2[C@@H]1O[C@H](CO)[C@@H](O)[C@H]1O", "IC50": "> 100"}, {"smiles": "O=c1[nH]cnc2c1c(-c1ccccc1)cn2[C@@H]1O[C@H](CO)[C@@H](O)[C@H]1O", "IC50": "> 100"}, {"smiles": "O=c1[nH]cnc2c1c(-c1cc3ccccc3o1)cn2[C@@H]1O[C@H](CO)[C@@H](O)[C@H]1O", "IC50": "> 100"}, {"smiles": "Nc1nc(N)c2c(-c3ccco3)cn([C@@H]3O[C@H](CO)[C@@H](O)[C@H]3O)c2n1", "IC50": 84}, {"smiles": "Nc1nc(N)c2c(-c3ccoc3)cn([C@@H]3O[C@H](CO)[C@@H](O)[C@H]3O)c2n1", "IC50": 71.5}, {"smiles": "Nc1nc(N)c2c(-c3cccs3)cn([C@@H]3O[C@H](CO)[C@@H](O)[C@H]3O)c2n1", "IC50": 2.44}, {"smiles": "Nc1nc(N)c2c(-c3ccsc3)cn([C@@H]3O[C@H](CO)[C@@H](O)[C@H]3O)c2n1", "IC50": "> 100"}, {"smiles": "Nc1nc(N)c2c(-c3ccccc3)cn([C@@H]3O[C@H](CO)[C@@H](O)[C@H]3O)c2n1", "IC50": 8.53}, {"smiles": "Nc1nc(N)c2c(-c3cc4ccccc4o3)cn([C@@H]3O[C@H](CO)[C@@H](O)[C@H]3O)c2n1", "IC50": 24.6}, {"smiles": "Cc1nc(N)c2c(-c3ccco3)cn([C@@H]3O[C@H](CO)[C@@H](O)[C@H]3O)c2n1", "IC50": "> 100"}, {"smiles": "Cc1nc(N)c2c(-c3ccoc3)cn([C@@H]3O[C@H](CO)[C@@H](O)[C@H]3O)c2n1", "IC50": "> 100"}, {"smiles": "Cc1nc(N)c2c(-c3cccs3)cn([C@@H]3O[C@H](CO)[C@@H](O)[C@H]3O)c2n1", "IC50": 82.7}, {"smiles": "Cc1nc(N)c2c(-c3ccsc3)cn([C@@H]3O[C@H](CO)[C@@H](O)[C@H]3O)c2n1", "IC50": "> 100"}, {"smiles": "Cc1nc(N)c2c(-c3ccccc3)cn([C@@H]3O[C@H](CO)[C@@H](O)[C@H]3O)c2n1", "IC50": "> 100"}, {"smiles": "Cc1nc(N)c2c(-c3cc4ccccc4o3)cn([C@@H]3O[C@H](CO)[C@@H](O)[C@H]3O)c2n1", "IC50": "> 100"}, {"smiles": "C#Cc1cn([C@@H]2O[C@H](CO)[C@@H](O)[C@H]2O)c2nc(C)nc(N)c12", "IC50": "> 100"}, {"smiles": "Cc1nc(N)c2ccn([C@@H]3O[C@H](CO)[C@@H](O)[C@H]3O)c2n1", "IC50": "> 100"}, {"smiles": "CNc1ncnc2c1ccn2[C@@H]1O[C@H](CO)[C@@H](O)[C@H]1O", "IC50": 87.1}, {"smiles": "CN(C)c1ncnc2c1c(-c1ccco1)cn2[C@@H]1O[C@H](CO)[C@@H](O)[C@H]1O", "IC50": "> 100"}, {"smiles": "CN(C)c1ncnc2c1c(-c1ccoc1)cn2[C@@H]1O[C@H](CO)[C@@H](O)[C@H]1O", "IC50": "> 100"}, {"smiles": "CN(C)c1ncnc2c1c(-c1cccs1)cn2[C@@H]1O[C@H](CO)[C@@H](O)[C@H]1O", "IC50": "> 100"}, {"smiles": "CN(C)c1ncnc2c1c(-c1ccsc1)cn2[C@@H]1O[C@H](CO)[C@@H](O)[C@H]1O", "IC50": "> 100"}, {"smiles": "CN(C)c1ncnc2c1c(-c1ccccc1)cn2[C@@H]1O[C@H](CO)[C@@H](O)[C@H]1O", "IC50": "> 100"}, {"smiles": "CN(C)c1ncnc2c1c(-c1cc3ccccc3o1)cn2[C@@H]1O[C@H](CO)[C@@H](O)[C@H]1O", "IC50": "> 100"}, {"smiles": "C#Cc1cn([C@@H]2O[C@H](CO)[C@@H](O)[C@H]2O)c2ncnc(N(C)C)c12", "IC50": "> 100"}, {"smiles": "CN(C)c1ncnc2c1ccn2[C@@H]1O[C@H](CO)[C@@H](O)[C@H]1O", "IC50": "> 100"}, {"smiles": "CN(C)c1ncnc2c1c(I)cn2[C@@H]1O[C@H](CO)[C@@H](O)[C@H]1O", "IC50": "> 100"}, {"smiles": "Cc1ncnc2c1c(-c1ccco1)cn2[C@@H]1O[C@H](CO)[C@@H](O)[C@H]1O", "IC50": 38.9}, {"smiles": "Cc1ncnc2c1c(-c1ccoc1)cn2[C@@H]1O[C@H](CO)[C@@H](O)[C@H]1O", "IC50": 9.3}, {"smiles": "Cc1ncnc2c1c(-c1cccs1)cn2[C@@H]1O[C@H](CO)[C@@H](O)[C@H]1O", "IC50": 14}, {"smiles": "Cc1ncnc2c1c(-c1ccsc1)cn2[C@@H]1O[C@H](CO)[C@@H](O)[C@H]1O", "IC50": 18.5}, {"smiles": "Cc1ncnc2c1c(-c1ccccc1)cn2[C@@H]1O[C@H](CO)[C@@H](O)[C@H]1O", "IC50": 26.5}, {"smiles": "Cc1ncnc2c1c(-c1cc3ccccc3o1)cn2[C@@H]1O[C@H](CO)[C@@H](O)[C@H]1O", "IC50": 2.1}, {"smiles": "C#Cc1cn([C@@H]2O[C@H](CO)[C@@H](O)[C@H]2O)c2ncnc(C)c12", "IC50": 42.9}, {"smiles": "Cc1ncnc2c1c(I)cn2[C@@H]1O[C@H](CO)[C@@H](O)[C@H]1O", "IC50": 51.4}, {"smiles": "Cc1ncnc2c1c(Br)cn2[C@@H]1O[C@H](CO)[C@@H](O)[C@H]1O", "IC50": 20.8}, {"smiles": "COc1ncnc2c1c(-c1ccccc1)cn2[C@@H]1O[C@H](CO)[C@@H](O)[C@H]1O", "IC50": "> 100"}, {"smiles": "COc1ncnc2c1c(-c1cc3ccccc3o1)cn2[C@@H]1O[C@H](CO)[C@@H](O)[C@H]1O", "IC50": 73.5}, {"smiles": "C#Cc1cn([C@@H]2O[C@H](CO)[C@@H](O)[C@H]2O)c2ncnc(OC)c12", "IC50": "> 100"}, {"smiles": "COc1ncnc2c1c(I)cn2[C@@H]1O[C@H](CO)[C@@H](O)[C@H]1O", "IC50": "> 100"}, {"smiles": "CSc1ncnc2c1c(-c1ccco1)cn2[C@@H]1O[C@H](CO)[C@@H](O)[C@H]1O", "IC50": "> 100"}, {"smiles": "CSc1ncnc2c1c(-c1ccoc1)cn2[C@@H]1O[C@H](CO)[C@@H](O)[C@H]1O", "IC50": "> 100"}, {"smiles": "CSc1ncnc2c1c(-c1cccs1)cn2[C@@H]1O[C@H](CO)[C@@H](O)[C@H]1O", "IC50": "> 100"}, {"smiles": "CSc1ncnc2c1c(-c1ccsc1)cn2[C@@H]1O[C@H](CO)[C@@H](O)[C@H]1O", "IC50": 98.6}, {"smiles": "CSc1ncnc2c1c(-c1ccccc1)cn2[C@@H]1O[C@H](CO)[C@@H](O)[C@H]1O", "IC50": "> 100"}, {"smiles": "CSc1ncnc2c1c(-c1cc3ccccc3o1)cn2[C@@H]1O[C@H](CO)[C@@H](O)[C@H]1O", "IC50": "> 100"}, {"smiles": "C#Cc1cn([C@@H]2O[C@H](CO)[C@@H](O)[C@H]2O)c2ncnc(SC)c12", "IC50": "> 100"}, {"smiles": "CSc1ncnc2c1ccn2[C@@H]1O[C@H](CO)[C@@H](O)[C@H]1O", "IC50": 96.8}, {"smiles": "CSc1ncnc2c1c(I)cn2[C@@H]1O[C@H](CO)[C@@H](O)[C@H]1O", "IC50": 87.1}, {"smiles": "CNc1ncnc2c1c(-c1ccco1)cn2[C@@H]1O[C@H](CO)[C@@H](O)[C@H]1O", "IC50": "> 100"}, {"smiles": "CNc1ncnc2c1c(-c1ccoc1)cn2[C@@H]1O[C@H](CO)[C@@H](O)[C@H]1O", "IC50": "> 100"}, {"smiles": "CNc1ncnc2c1c(-c1cccs1)cn2[C@@H]1O[C@H](CO)[C@@H](O)[C@H]1O", "IC50": "> 100"}, {"smiles": "CNc1ncnc2c1c(-c1ccsc1)cn2[C@@H]1O[C@H](CO)[C@@H](O)[C@H]1O", "IC50": "> 100"}, {"smiles": "CNc1ncnc2c1c(-c1ccccc1)cn2[C@@H]1O[C@H](CO)[C@@H](O)[C@H]1O", "IC50": "> 100"}, {"smiles": "CNc1ncnc2c1c(-c1cc3ccccc3o1)cn2[C@@H]1O[C@H](CO)[C@@H](O)[C@H]1O", "IC50": "> 100"}, {"smiles": "C#Cc1cn([C@@H]2O[C@H](CO)[C@@H](O)[C@H]2O)c2ncnc(NC)c12", "IC50": "> 100"}, {"smiles": "COc1ncnc2c1c(-c1ccco1)cn2[C@@H]1O[C@H](CO)[C@@H](O)[C@H]1O", "IC50": "> 100"}, {"smiles": "COc1ncnc2c1c(-c1ccoc1)cn2[C@@H]1O[C@H](CO)[C@@H](O)[C@H]1O", "IC50": "> 100"}, {"smiles": "COc1ncnc2c1c(-c1cccs1)cn2[C@@H]1O[C@H](CO)[C@@H](O)[C@H]1O", "IC50": "> 100"}, {"smiles": "COc1ncnc2c1c(-c1ccsc1)cn2[C@@H]1O[C@H](CO)[C@@H](O)[C@H]1O", "IC50": "> 100"}, {"smiles": "CNc1ncnc2c1c(I)cn2[C@@H]1O[C@H](CO)[C@@H](O)[C@H]1O", "IC50": 99.9}, {"smiles": "COc1ncnc2c1ccn2[C@@H]1O[C@H](CO)[C@@H](O)[C@H]1O", "IC50": "> 100"}]}]}
